US20200102264A1, “MARMELIN ANALOGS AND METHODS OF USE IN CANCER TREATMENT” (THE UNIVERSITY OF KANSAS, priority 2014, published 2020)

Key:
[1] = test system: SW480 colon cancer cells; assay: hexoseaminidase cell proliferation assay, SW480; assay type: cell-based; settings: Homo sapiens
Text: (§1) Using hexoseaminidase assay, we determined the effect of the compounds on cell proliferation. […]
(§2) Using hexoseaminidase assay, we determined the effect of the compounds on cell proliferation. […] […] […] Overall, the analogs can be used as chemotherapeutic agents against colon and pancreatic cancer.

[2] = test system: transcription factor NF-κB; settings: previous studies, Cancer Res. 2008; cited from earlier work
[3] = test system: HCT116 cells; assay: colony formation, HCT116; assay type: cell-based
[4] = test system: SW480 cells; assay: colony formation, SW480; assay type: cell-based
[5] = test system: PanC-1 pancreatic cancer cells; assay: hexoseaminidase cell proliferation assay, PanC-1; assay type: cell-based; settings: Homo sapiens
Description: (§3) Using hexoseaminidase assay, we determined the effect of the compounds on cell proliferation. […] The IC50 value at 48 hours is below 10 μM in all the cancer cell lines.
(§4) Using hexoseaminidase assay, we determined the effect of the compounds on cell proliferation. […] The MRL16 IC50 value at 48 hours is below 0.3 μM in Colon cancer cell lines. […] Overall, the analogs can be used as chemotherapeutic agents against colon and pancreatic cancer.

[6] = test system: SW480 cells; assay: cell cycle analysis, SW480; assay type: cell-based; settings: SW480, Table 3
Description: The analogs were tested to determine the ability induce death of colon cancer cells.

[7] = test system: HCT116 cells; assay: cell cycle analysis, HCT116; assay type: cell-based; settings: HCT116, Table 3
[8] = test system: HCT116 colon cancer cells; assay: hexoseaminidase cell proliferation assay, HCT116; assay type: cell-based; settings: Homo sapiens, HCT-116
Text: as §1, §2

[9] = test system: MiaPaCa-2 pancreatic cancer cells; assay: hexoseaminidase cell proliferation assay, MiaPaCa-2; assay type: cell-based; settings: Homo sapiens, MIA PaCa-2
Description: as §3, §4

IC50 ([1]; SW480, 24 h): > 50 µM
IC50 ([1]; SW480, 48 h): > 50 µM
IC50 ([1]; SW480, 72 h): > 50 µM
IC50 ([5]; PANC-1, 24 h): > 50 µM
IC50 ([5]; PANC-1, 48 h): > 50 µM
IC50 ([5]; PANC-1, 72 h): > 50 µM
IC50 ([8]; HCT116, 24 h): > 50 µM
IC50 ([8]; HCT116, 48 h): > 50 µM
IC50 ([8]; HCT116, 72 h): > 50 µM
IC50 ([9]; MiaPaCa-2, 24 h): > 50 µM
IC50 ([9]; MiaPaCa-2, 48 h): > 50 µM
IC50 ([9]; MiaPaCa-2, 72 h): > 50 µM
Compound: COc1cc(OC)c2ccc(C=O)c(O)c2c1 [MRL, 1-hydroxy-5,7-dimethoxy-2-naphthalene-carboxaldehyde, reference compound]
action of transcription factor NF-κB [2]: can inhibit
colony formation [3]: does not appear to significantly inhibit colony formation
colony formation [4]: does not appear to significantly inhibit colony formation
G0/G1 (%) [6]: 65.3%
G2M (%) [6]: 18.1%
S (%) [6]: 10.2%
SubG0 Dead Cells (%) [6]: 6.0%
G0/G1 (%) [7]: 45.3%
G2M (%) [7]: 11.4%
S (%) [7]: 11.5%
SubG0 Dead Cells (%) [7]: 29.9%
